Assay results published in ChEMBL document CHEMBL3867445, “Halogenated Sesquiterpenoids from the Red Alga Laurencia tristicha Collected in Taiwan” (J Nat Prod, 2016).

Legend:
[1] = Cytotoxicity against human A549 cells by Alamar Blue assay
[2] = Cytotoxicity against human DLD1 cells by Alamar Blue assay; type: functional, cell-based; details: DLD-1
[3] = Cytotoxicity against human LNCAP cells by Alamar Blue assay; type: functional, cell-based
[4] = Antiinflammatory activity in human neutrophils assessed as inhibition of fMLP/CB-induced superoxide anion generation by measuring superoxide dismutase-inhibitable reduction of ferricytochrome c at 10 uM preincubated for 5 mins followed by fMLP/CB-induction measured after 10 mins; type: functional; details: Neutrophil
[5] = Antiinflammatory activity in human neutrophils assessed as inhibition of fMLP/CB-induced superoxide anion generation by measuring superoxide dismutase-inhibitable reduction of ferricytochrome c at 20 uM preincubated for 5 mins followed by fMLP/CB-induction measured after 10 mins; type: functional; details: Neutrophil
[6] = Antiinflammatory activity in human neutrophils assessed as inhibition of fMLP/CB-induced elastase release at 10 uM using MeO-Suc-Ala-Ala-Pro-Val-p-nitroanilide as elastase substrate preincubated for 5 mins followed by fMLP/CB-induction; type: functional; details: Neutrophil
[7] = Antiinflammatory activity in human neutrophils assessed as inhibition of fMLP/CB-induced elastase release at 20 uM using MeO-Suc-Ala-Ala-Pro-Val-p-nitroanilide as elastase substrate preincubated for 5 mins followed by fMLP/CB-induction; type: functional; details: Neutrophil
[8] = test system: Serratia marcescens; assay: Antibacterial activity against Serratia marcescens ATCC 25419 assessed as zone of inhibition at 100 ug/disk measured after 24 hrs by agar disk-diffusion method; type: functional; details: ATCC 25419, 24 h, read-out: IZ
[9] = test system: Yersinia enterocolitica; assay: Antibacterial activity against Yersinia enterocolitica ATCC 23715 assessed as zone of inhibition at 100 ug/disk measured after 24 hrs by agar disk-diffusion method; type: functional; details: ATCC 23715, 24 h, read-out: IZ
[10] = test system: Klebsiella aerogenes; assay: Antibacterial activity against Enterobacter aerogenes ATCC 13048 assessed as zone of inhibition at 100 ug/disk measured after 24 hrs by agar disk-diffusion method; type: functional; details: ATCC 13048, 24 h, read-out: IZ

Compound	IC50 [1] [µM]	IC50 [2] [µM]	IC50 [3] [µM]	inhibition at 10 µM [4] [%]	inhibition at 20 µM [5] [%]	inhibition at 10 µM [6] [%]	inhibition at 20 µM [7] [%]	zone of inhibition at 100 µg/disc [8] [mm]	zone of inhibition at 100 µg/disc [9] [mm]	zone of inhibition at 100 µg/disc [10] [mm]
C=C1C[C@@H](O)[C@@H](Br)C(C)(C)[C@@]12C=C/C(=C/Br)CC2	≥ 10	≥ 10	≥ 10	18	10	34	69	–	–	–
C=C1C[C@@H](O)[C@@H](Br)C(C)(C)[C@@]12C=C[C@](O)(CO)CC2	≥ 10	≥ 10	≥ 10	7	14	9	29	–	–	–
C=C1C[C@@H](O)[C@@H](Br)C(C)(C)[C@]12CCC(=O)[C@H]1O[C@H]12	≥ 10	≥ 10	≥ 10	6	6	3	14	–	–	–
CC1=CC(=O)CC(C)(C)[C@@]12C=C/C(=C\Br)CC2	≥ 10	≥ 10	≥ 10	6	12	3	14	8	–	–
C=C1C[C@@H](O)[C@@H](Br)C(C)(C)[C@@]12C=C[C@](O)(C(Br)Br)CC2	≥ 10	≥ 10	≥ 10	19	32	9	33	2	4	–
C=C1CC[C@]2(C[C@@H]1O)C(=C)C[C@H](O)[C@@H](Br)C2(C)C	≥ 10	≥ 10	≥ 10	10	14	5	24	–	–	–
Cc1ccc([C@]2(C)C[C@H](O)[C@@H](Br)C2(C)C)cc1	≥ 10	≥ 10	≥ 10	17	26	7	28	–	–	–
CC1=CC(=O)CC(C)(C)[C@@]12C=C/C(=C/Br)CC2	≥ 10	≥ 10	≥ 10	7	10	5	30	–	–	–
CC1=C[C@H](O)[C@@H](Br)C(C)(C)[C@@]12C=C[C@](C)(O)CC2	≥ 10	≥ 10	≥ 10	13	12	1	12	–	–	–
C=C1C[C@@H](O)[C@@H](Br)C(C)(C)[C@]12CC[C@](C)(Br)[C@@H](Cl)C2	≥ 10	≥ 10	≥ 10	25	48	44	60	2	2	2
CO[C@@]1(C)CC[C@]2(C[C@H]1Br)C(C)=C[C@H](O)CC2(C)C	≥ 10	≥ 10	≥ 10	12	10	5	24	–	–	–
CC1=C[C@H](O)CC(C)(C)[C@]12CC[C@](C)(Br)[C@H](Cl)C2	≥ 10	≥ 10	≥ 10	12	14	12	19	–	–	–
CC1(C)[C@H](Br)[C@H](O)C[C@@]2(CO2)[C@@]12CCC(=O)[C@@H]1O[C@@H]12	≥ 10	≥ 10	≥ 10	9	8	2	18	–	–	–
C=C1C[C@@H](O)[C@@H](Br)C(C)(C)[C@@]12C=CC(=O)CC2	≥ 10	≥ 10	≥ 10	7	13	9	14	–	–	3
C=C1C[C@@H](O)[C@@H](Br)C(C)(C)[C@@]12C=C/C(=C\Br)CC2	≥ 10	≥ 10	≥ 10	24	10	8	12	4	3	–
CC1=CC(=O)CC(C)(C)[C@@]12C=CC(=O)CC2	≥ 10	≥ 10	≥ 10	4	16	18	32	–	–	–
CC1(C)S[C@@H]2[C@H](NC(=O)[C@H](N)c3ccccc3)C(=O)N2[C@H]1C(=O)O [AMPICILLIN]	–	–	–	–	–	–	–	5	8	11
COc1cccc2c1C(=O)c1c(O)c3c(c(O)c1C2=O)C[C@@](O)(C(=O)CO)C[C@@H]3O[C@H]1C[C@H](N)[C@H](O)[C@H](C)O1 [DOXORUBICIN]	–	2.6	1.4	–	–	–	–	–	–	–
CC[C@H](Nc1ncnc2[nH]cnc12)c1nc2cccc(F)c2c(=O)n1-c1ccccc1 [IDELALISIB]	–	–	–	103	–	100	–	–	–	–
C=C1C[C@H](O)[C@@H](Br)C(C)(C)[C@@]12C=C[C@](C)(O)CC2 [ISORIGIDOL]	≥ 10	≥ 10	≥ 10	11	23	9	12	–	–	–
C=C1C[C@@H](O)[C@@H](Br)C(C)(C)[C@@]12C=C[C@@](O)(C(Br)Br)CC2 [MAILIOHYDRIN]	≥ 10	≥ 10	≥ 10	13	16	16	22	2	2	1
